The values below come from patent US20210346388A1, “CDC7-Inhibiting Purine Derivatives and their use for the Treatment of Neurological Conditions” (CONSEJO SUPERIOR DE INVESTIGACIONES CIENTIFICAS (CSIC), priority 2018, published 2021).

For data set [1], the target named is recombinant human Cdc7/DBF4 (Homo sapiens, UniProt O00311). In words: LanthaScreen Eu Kinase Inhibition Assay (Cdc7 inhibition). It counts as binding. As to conditions: recombinant human Cdc7/DBF4 0.5 nM, 60 min room temperature, 1% DMSO; read-out: Cdc7 CI50. The source says:
The LanthaScreen Eu Kinase Inhibition Assay uses an Alexa Fluor™ marker which binds to a kinase and is detected by the addition of an Eu-labelled antibody. The binding of the marker and the antibody to the kinase results in a high degree of FRET, whereas the displacement of the marker by an inhibitor results in a loss of FRET. Unlike many other kinase activity assays, this is a simple mix and read assay, without stages of development. This assay method has been developed by “Life Technologies” and they identify competitive ATP kinase inhibitors, making them suitable for the detection of any compound which binds to the ATP site.
The compounds are evaluated in 1% DMSO (final) in the well. A mixture of recombinant human Cdc7/DBF4 (0.5 nM), Eu-anti-GST antibody (2 nM) and Alexa Fluor marker (1 nM) in a buffer of 50 mM HEPES pH 7.5, 0.01% BRIJ-35, 10 mM MgCl2, 1 mM EGTA was used. In white plates with […], with a low volume, and coded (Greiner cat. #784207), 160 nL (100×compound in 100% DMSO), 3.84 μl (buffer with Cdc7/DBF4), […] (antibody), 4.0 μl (marker) are added. It is stirred for 30 s and incubated at room temperature for 60 min. Next, the fluorescence is measured in the plate reader and the data is analysed (Table 1).
Background: In TR-FRET formats the signal depends on donor and acceptor labels being close together.

Data set [2] can be described thus: PAMPA-BBB permeability (porcine brain lipid artificial membrane). As to conditions: for Papp at 2.5 h: pig, PAMPA, porcine brain lipid, PBS pH 7.4/EtOH 70:30, 2 h 30 min at 25° C., mean ± SD, read-out: Pe (permeability, PAMPA-BBB); for PAMPA prediction of the penetration into the central nervous system (CNS): prediction from Pe, PAMPA-BBB. Details: key to PAMPA prediction of the penetration into the central nervous system (CNS): permeable to the BBB (CNS+) if it has a permeability >4.48×10^−6 cm·s^−1; CNS+/−: located in the zone of uncertainty. It counts as in vitro ADME. The source says:
An essential requirement that must be met by drugs for the treatment of neurodegenerative diseases is the ability to cross the blood-brain barrier (BBB) since, otherwise, they could not act on the target of interest. Therefore, for the compounds that are non-permeable or located in the zone of uncertainty, it could be necessary for them to be suitably conveyed in a pharmaceutical formulation by means of methods known by those skilled in the art, such as by means of encapsulation. This ability can be predicted in vitro by using a method known by the acronym PAMPA (Parallel Artificial Membrane Permeability Assay) described by Di et al. (Di, L.; Kerns, E. H.; Fan, K.; McConnell, O. J.; Carter, G. T. Eur. J. Med. Chem., 2003, 38 (3), 223-232) and that has subsequently been fine-tuned in our research group. Said method enables the effective permeability through artificial membranes to be predicted by means of a passive diffusion process.
First, it is necessary to validate the method, for which reason 10 commercial compounds, whose ability to penetrate the central nervous system (CNS) is known, are used and will be specified below, obtaining in this case good linear correlation between the experimental permeability values (Pe) and those described (FIG. 1). This correlation line obtained following the pattern described in the literature makes it possible to establish the limits for predicting whether a compound can cross the blood-brain barrier or not. Thus, a compound is considered to be permeable to the BBB (CNS+) if it has a permeability >4.48×10^−6 cm·s^−1.
For the procedure, between 3-5 mg of caffeine, desipramine, enoxacin, hydrocortisone, ofloxacin, piroxicam and testosterone, 12 mg of promazine and 25 mg of atenolol and verapamil were taken and dissolved in EtOH (1000 μl). 100 μl of these solutions were taken and EtOH (1400 μl) and phosphate buffer (PBS) pH=7.4 (3500 μl) were added in order to reach a final EtOH concentration of 30% v/v in solution. Lastly, the solutions were filtered.
Moreover, a solution of PBS/EtOH (70:30) was added to each well of the acceptor plate (180 μl). The donor plate was impregnated with a solution of porcine brain lipid (4 μl) dissolved in dodecane (20 mg·ml^−1). After 5 min, a solution of each compound was added on this plate (180 μl).
Of the compounds evaluated, between 1-2 mg were taken and dissolved in EtOH (1500 μl) and phosphate buffer (PBS) pH=7.4 (3500 μl), filtered and added to the donor plate. With these solutions, the wavelengths at which they absorb the compounds are determined and the initial absorbance levels at these wavelengths are measured by using a UV absorbance reader. Each sample was analysed at two to five wavelengths, in three wells and in two independent experiments.
Next, the donor plate was deposited on the acceptor plate forming a sort of “sandwich” and they were left to incubate for 2 h and 30 min at 25° C. Thus, the compounds will pass from the donor plate to the acceptor plate through the porcine brain lipid by means of passive diffusion. After that time, the donor plate is carefully removed and the final concentration and absorbance of both the commercial and the synthesised compounds are determined. The results obtained are expressed as the mean of the measurements [standard deviation (SD)] of the different experiments performed and are recorded in Table 2.

Data set [3] relates to SH-SY5Y human neuroblastoma cell line. As to the kind of experiment: cells. It counts as cell-based. The method, then: The data represents the mean of four different experiments ±SEM (*p<0.05).
The SH-SY5Y human neuroblastoma cell line was grown at 37° C. with 5% CO2 in DMEN (Dulbecco's Modified Eagle Medium) enriched with L-glutamine (2 mM), 1% non-essential amino acids, 1% Penicillin/Streptomycin and 10% foetal bovine serum. In the state of semi-confluence, the cells were treated with the Cdc7 inhibitor (compound 3) at different concentrations for 1.30 hours post-addition of the causative agent of the TDP-43 phosphorylation; ethacrynic acid (20 μM) (Sigma). At 24 hours, the cellular viability was evaluated with MTT ([3-(4,5-dimethylthiazol-2-yl)-2,5-diphenyltetrazolium bromide) following a described procedure (Denizot F, Lang R. J Immunol Methods. 1987; 89:271-7).

Sequence of recombinant human Cdc7/DBF4 (O00311 whole entry): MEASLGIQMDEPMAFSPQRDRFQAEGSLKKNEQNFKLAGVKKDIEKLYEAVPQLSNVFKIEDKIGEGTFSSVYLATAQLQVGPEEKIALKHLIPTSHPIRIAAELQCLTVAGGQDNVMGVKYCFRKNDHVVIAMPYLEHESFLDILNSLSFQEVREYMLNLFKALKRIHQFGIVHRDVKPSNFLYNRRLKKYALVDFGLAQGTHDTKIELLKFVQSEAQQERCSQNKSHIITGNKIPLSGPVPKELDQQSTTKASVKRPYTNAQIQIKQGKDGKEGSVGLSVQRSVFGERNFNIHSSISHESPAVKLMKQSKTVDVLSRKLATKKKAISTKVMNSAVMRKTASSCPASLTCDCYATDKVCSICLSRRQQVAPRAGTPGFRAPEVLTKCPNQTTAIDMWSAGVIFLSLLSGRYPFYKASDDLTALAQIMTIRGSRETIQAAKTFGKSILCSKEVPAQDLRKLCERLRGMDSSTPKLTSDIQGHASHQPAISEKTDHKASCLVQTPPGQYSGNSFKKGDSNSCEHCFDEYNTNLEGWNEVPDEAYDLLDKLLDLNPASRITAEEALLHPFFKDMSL
Sequence of recombinant human Cdc7/DBF4 (Q9UBU7 whole entry partner): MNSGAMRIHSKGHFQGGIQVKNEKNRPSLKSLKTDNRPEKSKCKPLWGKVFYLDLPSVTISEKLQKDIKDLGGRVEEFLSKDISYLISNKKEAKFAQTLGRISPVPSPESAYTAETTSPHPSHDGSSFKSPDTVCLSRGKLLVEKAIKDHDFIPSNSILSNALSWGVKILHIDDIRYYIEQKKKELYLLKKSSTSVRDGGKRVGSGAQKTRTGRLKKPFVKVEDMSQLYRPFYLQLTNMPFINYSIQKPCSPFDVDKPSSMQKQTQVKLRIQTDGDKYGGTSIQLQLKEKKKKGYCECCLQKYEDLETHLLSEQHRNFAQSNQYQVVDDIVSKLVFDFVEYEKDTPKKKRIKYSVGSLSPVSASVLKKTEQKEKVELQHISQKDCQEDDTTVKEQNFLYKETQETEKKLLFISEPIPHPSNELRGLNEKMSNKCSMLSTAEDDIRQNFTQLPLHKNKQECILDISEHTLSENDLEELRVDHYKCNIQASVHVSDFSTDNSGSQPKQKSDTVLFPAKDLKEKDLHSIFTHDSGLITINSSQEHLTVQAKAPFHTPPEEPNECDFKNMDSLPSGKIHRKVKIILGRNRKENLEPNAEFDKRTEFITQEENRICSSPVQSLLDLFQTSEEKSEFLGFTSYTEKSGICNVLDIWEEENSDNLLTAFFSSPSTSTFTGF

As to `Clc1cccc(CCSc2ncnc3[nH]cnc23)c1` [compound 7, 6-((3-chlorophenethyl)thio)-9H-purine], in data set [1], the IC50 was 0.305 µM. In data set [2], the Papp at 2.5 h was 10.6 ± 0.5 ×10⁻⁶ cm/s and the “PAMPA prediction of the penetration into the central nervous system (CNS)” value (“PAMPA prediction” for short) was “CNS+ (permeable to the BBB (CNS+) if it has a permeability >4.48×10^−6 cm·s^−1)”.

As to `c1ccc(CSc2ncnc3[nH]ccc23)cc1` [compound 10, 4-(benzylthio)-7H-pyrrolo[2,3-d]pyrimidine], the IC50 in data set [1] was found to be 0.234 µM. For the same compound, in data set [2], the Papp at 2.5 h was 4.5 ± 1.2 ×10⁻⁶ cm/s and the “PAMPA prediction” value was “CNS+ (permeable to the BBB (CNS+) if it has a permeability >4.48×10^−6 cm·s^−1)”.

With `O=C(CSc1ncnc2[nH]cnc12)c1ccc(I)cc1` [compound 5, 1-(4-iodophenyl)-2-((9H-purin-6-yl)thio)-ethan-1-one], the IC50 in data set [1] turned out to be 0.38 µM. In data set [2], the Papp at 2.5 h is 10.5 ± 1.2 ×10⁻⁶ cm/s and the “PAMPA prediction” value is recorded as “CNS+ (permeable to the BBB (CNS+) if it has a permeability >4.48×10^−6 cm·s^−1)”.

Consider `C=C(CC)C(=O)c1ccc(OCC(=O)O)c(Cl)c1Cl` [ethacrynic acid, reference compound], for which the mortality (in general, the percentage killed) at 20 µM in data set [3] (Homo sapiens, SH-SY5Y, 24 h, read-out: Cell mortality due to excess TDP-43 phosphorylation) was found to be 40%.

Turning to `Clc1ccc(CCSc2ncnc3[nH]cnc23)cc1` [compound 6, 6-((4-chlorophenethyl)thio)-9H-purine], the IC50 in data set [1] came to 0.142 µM. In addition, in data set [2], the Papp at 2.5 h is 25.1 ± 1.3 ×10⁻⁶ cm/s and the “PAMPA prediction” value is “CNS+ (permeable to the BBB (CNS+) if it has a permeability >4.48×10^−6 cm·s^−1)”.

On to `Clc1ccccc1CCSc1ncnc2[nH]cnc12` [compound 8, 6-((2-chlorophenethyl)thio)-9H-purine], for which, in data set [2], the Papp at 2.5 h was 11.6 ± 0.5 ×10⁻⁶ cm/s and the “PAMPA prediction” value is on record as “CNS+ (permeable to the BBB (CNS+) if it has a permeability >4.48×10^−6 cm·s^−1)”.

`Fc1ccc(CCSc2ncnc3[nH]cnc23)cc1` [compound 9, 6-((4-fluorophenethyl)thio)-9H-purine]: the IC50 in data set [1] came to 0.397 µM. In data set [2], the Papp at 2.5 h is 10.2 ± 0.5 ×10⁻⁶ cm/s and the “PAMPA prediction” value was “CNS+ (permeable to the BBB (CNS+) if it has a permeability >4.48×10^−6 cm·s^−1)”.

Take `COc1ccc(C(=O)CSc2ncnc3[nH]cnc23)cc1` [compound 2, 1-(4-methoxyphenyl)-2-((9H-purin-6-yl)thio)-ethan-1-one]: in data set [1], the IC50 is 1.08 µM. Further, in data set [2], the Papp at 2.5 h was 2.5 ± 0.1 ×10⁻⁶ cm/s and the “PAMPA prediction” value is on record as “CNS+/−”.

In the case of `O=C(CSc1ncnc2[nH]cnc12)c1ccc2ccccc2c1` [compound 3, 1-(naphthalen-2-yl)-2-((9H-purin-6-yl)thio)-ethan-1-one], the IC50 in data set [1] amounted to 0.698 µM. Also, in data set [2], the Papp at 2.5 h is 9.6 ± 0.8 ×10⁻⁶ cm/s and the “PAMPA prediction” value is “CNS+ (permeable to the BBB (CNS+) if it has a permeability >4.48×10^−6 cm·s^−1)”. For the same compound, the “Reversal of cell death caused by ethacrynic acid (neuroprotective effect, MTT viability)” value in data set [3] (SH-SY5Y cells, ethacrynic acid 20 μM, inhibitor at 10 μM, viability at 24 hours) was “this death is reversed”.

For `COc1cccc(C(=O)CSc2ncnc3[nH]cnc23)c1` [compound 4, 1-(3-methoxyphenyl)-2-((9H-purin-6-yl)thio)-ethan-1-one], in data set [1], the IC50 turned out to be 1.71 µM. Besides, in data set [2], the Papp at 2.5 h was 2.4 ± 1 ×10⁻⁶ cm/s and the “PAMPA prediction” value was “CNS+/−”.
